Test results published in US5403574A, “Evaluation and treatment of the multidrug resistance phenotype” (priority 1992, dated 1995).
“Also recorded” adds a separate entry of the source.

Legend:
[1] = tested on: P-glycoprotein enriched membrane vesicles; settings: multidrug resistant cell vesicles; cited from earlier work
P-glycoprotein = settings: cited from earlier work
[2] = whole body imaging agent; cited from earlier work
tumors = settings: human, in vivo; cited from earlier work
[3] = tested on: V79 cells (multidrug resistance P-glycoprotein)
Description: (§3) Accumulation of Tc-MIBI in LZ cells (highly expressing multidrug resistance) (0) and V79 cells (modestly expressing multidrug resistance) (.cndot.).
(§4) Cell-associated activity was then determined.

Alex and Alex/A.5 cells = assay: Cell survival / cytotoxicity, Alex and Alex/A.5 cells (sulforhodamine B); format: cell-based, human
Description: (§1) FIG. 5. Cell survival studies and LD50 determination showing cytotoxicity of a ^99 Tc-isonitrile complex that is transported by the P-glycoprotein in vitro. Survival of parental V79 and multidrug resistant LZ cells (A) and parental Alex and multidrug resistant Alex/A.5 cells (B) in increasing concentrations of carrier-added ^99 Tc-MIBI. Methods: Cell survival assays were performed by plating 4,000-20,000 cells per well in 96 well microtiter plates in triplicate in three separate experiments. V79 and LZ cells were grown essentially as described in Example 2 while Alex and Alex/A.5 were grown as described by Goldstein, L., et al., J. Natl. Cancer Inst. 81:116 (1989). Multidrug resistant cells were cultured in drug free media for 72-96 hours prior to culture in ^99 Tc-MIBI. Surviving cells were assayed by staining with sulforhodamine B (Mazzanti, R., et al., J. Cell Pharmacol. 1:50 (1990)) at 72 hours for V79 and LZ cells or 96 hours for Alex and Alex A.5 cells. Survival was expressed as the percentage of surviving cells relative to growth in alpha-MEM media without ^99 Tc-MIBI. […] LD50 determinations were obtained by interpolation from the cell survival curves.
(§2) Micromolar concentrations of carrier-added 99Tc-MIBI is shown to be cytotoxic in hamster lung fibroblast cells (A) and human carcinoma cells (B) (FIG. 5). […]

[4] = tested on: LZ cells (multidrug resistance P-glycoprotein)
Description: as §3, §4

V79 and LZ cells = assay: Cell survival / cytotoxicity, V79 and LZ cells (sulforhodamine B); format: cell-based, hamster; settings: 72 hours
Description: as §1, §2

mitochondrial function = settings: typical loading activities; cited from earlier work
cells and mitochondria = settings: cited from earlier work

CC[C@]1(O)C[C@H]2CN(CCc3c([nH]c4ccccc34)[C@@](C(=O)OC)(c3cc4c(cc3OC)N(C=O)[C@H]3[C@@](O)(C(=O)OC)[C@H](OC(C)=O)[C@]5(CC)C=CCN6CC[C@]43[C@@H]65)C2)C1 [vincristine]
Inhibition of labeled vinblastine accumulation in vesicles [1]: inhibited | Inhibition of photoaffinity labeling of P-glycoprotein by vinblastine analog (P-glycoprotein): inhibited

[99Tc].[C-]#[N+]CC(C)(C)OC.[C-]#[N+]CC(C)(C)OC.[C-]#[N+]CC(C)(C)OC.[C-]#[N+]CC(C)(C)OC.[C-]#[N+]CC(C)(C)OC.[C-]#[N+]CC(C)(C)OC [Tc-MIBI, hexakis (2-methoxyisobutyl isonitrile) technetium-99m (I)]
Toxic activity at imaging doses [2]: no toxic activity; also recorded: without chemotoxic effects | Uptake within known bronchial carcinomas (tumors): uptake | Uptake within mediastinal and pulmonary metastasis from thyroid cancer (tumors): uptake | Uptake within untreated malignant lung lesions (tumors): uptake | Plateau net accumulation in V79 cells relative to LZ cells [3]: 20 fold | Toxicity in drug-sensitive human Alexander cells compared to multidrug-resistant derivative (Alex/A.5) (Alex and Alex/A.5 cells; Alex vs Alex/A.5, 96 hours): 13 fold | Cytotoxicity in human carcinoma cells (Alex and Alex/A.5 cells; micromolar concentrations, carrier-added, 96 hours): cytotoxic | Net accumulation of Tc-MIBI [4]: 0.3 fmoles Tc-MIBI/mg protein per nmolar extracellular Tc-MIBI | Toxicity in drug-sensitive V79 compared to multidrug-resistant derivative (LZ) (V79 and LZ cells; V79 vs LZ): 11 fold | Cytotoxicity in hamster lung fibroblast cells (V79 and LZ cells; micromolar concentrations, carrier-added): cytotoxic

COC(=O)[C@H]1[C@H]2C[C@@H]3c4[nH]c5cc(OC)ccc5c4CCN3C[C@H]2C[C@@H](OC(=O)c2cc(OC)c(OC)c(OC)c2)[C@@H]1OC [reserpine]
Inhibition of photoaffinity labeling of P-glycoprotein by vinblastine analog (P-glycoprotein): inhibited

COC(=O)c1ccccc1-c1c2ccc(=N)cc-2oc2cc(N)ccc12 [rhodamine 123]
Toxic effects on mitochondrial function (mitochondrial function): toxic effects on mitochondrial function | Toxicity to cells and mitochondria (cells and mitochondria): toxic to cells and mitochondria

C=C[C@H]1C[N@@]2CC[C@H]1C[C@@H]2[C@@H](O)c1ccnc2ccc(OC)cc12 [Quinidine]
Inhibition of photoaffinity labeling of P-glycoprotein by vinblastine analog (P-glycoprotein): inhibited

CCOC(=O)C1=C(C)NC(C)=C(C(=O)OCCNC(=O)c2ccc(N=[N+]=[N-])cc2)C1c1ccccc1C(F)(F)F (centres unmarked) [azidopine]
Inhibition of photoaffinity labeling of P-glycoprotein by vinblastine analog (P-glycoprotein): inhibited

COc1cccc2c1C(=O)c1c(O)c3c(c(O)c1C2=O)C[C@@](O)(C(C)=O)C[C@@H]3O[C@H]1C[C@H](N)[C@H](O)[C@H](C)O1 [daunomycin]
Inhibition of photoaffinity labeling of P-glycoprotein by vinblastine analog (P-glycoprotein): inhibited

c1ccc([P+](c2ccccc2)(c2ccccc2)c2ccccc2)cc1 [TPP^+]
Toxic effects on mitochondrial function (mitochondrial function): toxic effects on mitochondrial function

CC[C@]1(O)C[C@@H]2CN(CCc3c([nH]c4ccccc34)[C@@](C(=O)OC)(c3cc4c(cc3OC)N(C)[C@H]3[C@@](O)(C(=O)OC)[C@H](OC(C)=O)[C@]5(CC)C=CCN6CC[C@]43[C@@H]65)C2)C1 [vinblastine]
Inhibition of labeled vinblastine accumulation in vesicles [1]: inhibited
